Source: ChEMBL document CHEMBL1201862, “PubChem BioAssay data set” (2004)
Active and inactive are the calls of the source. Cut-off read from the data, not from the text of the source: actives have a measured IC50 and inactives only a lower limit.

Molecular target: Envelope glycoprotein gp160 (Human immunodeficiency virus 1, UniProt Q6QLK5)
Experiment: cell-free HIV fusion peptide-binding blockers – biochemical, uHTS, fluorescence dequenching, […] (AID 1986)

Chain of Envelope glycoprotein gp160 (Q6QLK5 whole entry, the tested form may be a part): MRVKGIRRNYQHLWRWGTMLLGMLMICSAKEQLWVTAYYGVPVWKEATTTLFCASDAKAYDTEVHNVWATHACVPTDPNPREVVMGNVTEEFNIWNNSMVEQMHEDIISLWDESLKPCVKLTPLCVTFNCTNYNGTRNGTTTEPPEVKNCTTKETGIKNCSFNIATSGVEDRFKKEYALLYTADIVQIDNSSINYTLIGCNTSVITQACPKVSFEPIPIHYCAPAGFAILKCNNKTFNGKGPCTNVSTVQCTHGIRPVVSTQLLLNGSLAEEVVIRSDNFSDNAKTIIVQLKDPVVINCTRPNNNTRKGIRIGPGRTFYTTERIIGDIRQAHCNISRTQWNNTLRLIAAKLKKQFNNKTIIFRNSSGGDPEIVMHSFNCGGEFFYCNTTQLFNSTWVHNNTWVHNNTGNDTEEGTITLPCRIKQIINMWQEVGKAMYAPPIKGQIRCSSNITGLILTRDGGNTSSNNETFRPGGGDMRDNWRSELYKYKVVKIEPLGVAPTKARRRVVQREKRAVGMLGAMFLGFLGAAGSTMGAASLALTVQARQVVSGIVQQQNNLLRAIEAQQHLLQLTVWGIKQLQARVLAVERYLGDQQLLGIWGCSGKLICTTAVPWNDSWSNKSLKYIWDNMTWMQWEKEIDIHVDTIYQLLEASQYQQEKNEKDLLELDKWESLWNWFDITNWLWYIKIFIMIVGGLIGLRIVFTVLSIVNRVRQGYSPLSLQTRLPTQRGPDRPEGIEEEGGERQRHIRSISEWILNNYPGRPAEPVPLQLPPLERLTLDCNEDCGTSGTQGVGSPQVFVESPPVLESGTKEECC

Row | Structure (SMILES) | IC50
1 | CC(C)(C)OC(=O)N1CCC(c2cc(O)n3ncc(C(=O)Nc4ccc(F)c(Cl)c4)c3n2)CC1 | 82.2 µM (active)
2 | O=C1N/C(=N\c2ccccc2Cl)S/C1=C\c1cccc([N+](=O)[O-])c1O | 22.1 µM (active)
3 | Nc1c(S(=O)(=O)O)cc(NC(=O)c2ccccc2)c2c1C(=O)c1ccccc1C2=O | 12.1 µM (active)
4 | CCOc1cc(Br)cc(C(c2c(C(=O)O)[nH]c3ccccc23)c2c(C(=O)O)[nH]c3ccccc23)c1O | 5.92 µM (active)
5 | Cc1ccc(-c2nn(-c3ccccc3)cc2/C=C2\SC(=S)N(CC(=O)O)C2=O)cc1 | 12.3 µM (active)
